Strand notation (5' to 3'): a small letter for the sugar, then the base; units joined by * are phosphorothioate-linked, units joined directly phosphodiester-linked; [ ] holds rarer units or linkages, { } end groups; capitals alone tell only the bases. e = 2'-O-(2-methoxyethyl) (MOE); [5mC] = 5-methylcytosine; d = 2'-deoxy (DNA)
Legend:
Human B7-1 mRNA = Human B7-1 mRNA expression in COS-7 cells, screened as in Example 4; format: cell-based; settings: human B7-1 mRNA; Table 7
hB7-2 mRNA = test: Ribonuclease protection assay of hB7-2 mRNA in transfected COS-7 cells; format: cell-based, human; settings: human B7-2 mRNA; Table 12
Protocol: For ribonuclease protection assays, cells were harvested 18 hours after completion of oligonucleotide treatment using a Totally RNA™ kit (Ambion, Austin, Tex.). The probes for the assay were generated from plasmids pcB7-2 (linearized by digestion with Bgl II) and pTRI-b-actin (Ambion Inc., Austin, Tex.). In vitro transcription of the linearized plasmid from the SP6 promoter was performed in the presence of α-^32P-UTP (800 Ci/mmole) yielding an antisense RNA complementary to the 3′ end of B7-2 (position 1044-1391). The probe was gel-purified after treatment with DNase I to remove DNA template. Ribonuclease protection assays were carried out using an RPA II™ kit (Ambion) according to the manufacturer's directions. Total RNA (5 μg) was hybridized overnight, at 42° C., with 10^5 cpm of the B7-2 probe or a control beta-actin probe. The hybridization reaction was then treated, at 37° C. for 30 minutes, with 0.4 units of RNase A and 2 units of RNase T1. Protected RNA was precipitated, resuspended in 10 μL of gel loading buffer and electrophoresed on a 6% acrylamide gel with 50% w/v urea at 20 W. The gel was then exposed and the lanes quantitated using a PhosphorImager (Molecular Dynamics, Sunnyvale, Calif.) essentially according to the manufacturer's instructions.
The oligonucleotides were screened as described in Example 4 except that the concentration of oligonucleotide was varied as shown in Table 13. Mismatch control oligonucleotides were included.

Substance	% mRNA EXPRESSION (hB7-2 mRNA) [%]	other results
13805 (antisense C^{S}C^{S}T^{S}G^{S}C^{S}C^{S}T^{S}C^{S}C^{S}G^{S}T^{S}G^{S}T^{S}G^{S}T^{S}G^{S}G^{S}C^{S}C^{S}C; as printed in the source, key not given here) [compound 13805]		% mRNA EXPRESSION (Human B7-1 mRNA): 46%; % mRNA INHIBITION (Human B7-1 mRNA): 54%
22285 (e[5mC]*eA*eG*eA*eA*dG*d[5mC]*dA*dA*dG*dG*dT*dG*dG*dT*eA*eA*eG*eA*eA; antisense) [compound 22285]	74	% mRNA INHIBITION (hB7-2 mRNA): 26%
22286 (eG*e[5mC]*e[5mC]*eT*eG*dT*d[5mC]*d[5mC]*dA*d[5mC]*dT*dG*dT*dA*dG*e[5mC]*eT*e[5mC]*e[5mC]*eA; antisense) [compound 22286]	39	
22288 (eT*e[5mC]*eA*eG*eA*dG*dG*dA*dG*d[5mC]*dA*dG*d[5mC]*dA*d[5mC]*e[5mC]*eA*eG*eA*eG; antisense) [compound 22288]	38	
22289 (eT*eG*eG*e[5mC]*eA*dT*dG*dG*d[5mC]*dA*dG*dG*dT*d[5mC]*dT*eG*e[5mC]*eA*eG*eT; antisense) [compound 22289]	41	
22290 (eA*eG*e[5mC]*eT*e[5mC]*dA*d[5mC]*dT*d[5mC]*dA*dG*dG*d[5mC]*dT*dT*eT*eG*eG*eT*eT; antisense) [compound 22290]	42	
22291 (eT*eG*e[5mC]*e[5mC]*eT*dA*dA*dG*dT*dA*dT*dA*d[5mC]*d[5mC]*dT*e[5mC]*eA*eT*eT*e[5mC]; antisense) [compound 22291]	41	
22292 (e[5mC]*eT*eG*eT*e[5mC]*dA*dA*dA*dT*dT*dT*d[5mC]*dT*d[5mC]*dT*eT*eT*eG*e[5mC]*e[5mC]; antisense) [compound 22292]	39	
22293 (e[5mC]*eA*eT*eA*eT*dA*d[5mC]*dT*dT*dG*dG*dA*dA*dT*dG*eA*eA*e[5mC]*eA*e[5mC]; antisense) [compound 22293]	43	
22295 (eT*eG*eA*eT*e[5mC]*dT*dG*dA*dA*dG*dA*dT*dT*dG*dT*eG*eA*eA*eG*eT; antisense) [compound 22295]	66	% mRNA INHIBITION (hB7-2 mRNA): 34%
22296 (eA*eA*eG*e[5mC]*e[5mC]*d[5mC]*dT*dT*dG*dT*d[5mC]*d[5mC]*dT*dT*dG*eA*eT*e[5mC]*eT*eG; antisense) [compound 22296]	42	
22297 (eT*eG*eT*eG*eA*dT*dG*dG*dA*dT*dG*dA*dT*dA*d[5mC]*eA*eT*eT*eG*eA; antisense) [compound 22297]	54	% mRNA INHIBITION (hB7-2 mRNA): 46%
22298 (eT*e[5mC]*eA*eG*eG*dT*dT*dG*dA*d[5mC]*dT*dG*dA*dA*dG*eT*eT*eA*eG*e[5mC]; antisense) [compound 22298]	53	% mRNA INHIBITION (hB7-2 mRNA): 47%
22299 (eG*eT*eG*eT*eA*dT*dA*dG*dA*dT*dG*dA*dG*d[5mC]*dA*eG*eG*eT*e[5mC]*eA; antisense) [compound 22299]	46	
22300 (eT*e[5mC]*eT*eG*eT*dG*dA*d[5mC]*dA*dT*dT*dA*dT*d[5mC]*dT*eT*eG*eA*eG*eA; antisense) [compound 22300]	39	
22301 (eA*eA*eG*eA*eT*dA*dA*dA*dA*dG*d[5mC]*d[5mC]*dG*d[5mC]*dG*eT*e[5mC]*eT*eT*eG; antisense) [compound 22301]	51	
22302 (eA*eG*eA*eA*eA*dA*d[5mC]*d[5mC]*dA*dT*d[5mC]*dA*d[5mC]*dA*d[5mC]*eA*eT*eA*eT*eA; antisense) [compound 22302]	41	
22303 (eA*eG*eA*eG*eT*dT*dG*d[5mC]*dG*dA*dG*dG*d[5mC]*d[5mC]*dG*e[5mC]*eT*eT*e[5mC]*eT; antisense) [compound 22303]	46	
22304 (eT*e[5mC]*e[5mC]*e[5mC]*eT*d[5mC]*dT*d[5mC]*d[5mC]*dA*dT*dT*dG*dT*dG*eT*eT*eG*eG*eT; antisense) [compound 22304]	41	

From patent US7897582B2, “Oligonucleotide compositions and methods for the modulation of the expression of B7 protein” (Isis Pharmaceuticals, Inc., priority 2003, dated 2011)
